Legend:
Type in all cases: biochemical
Src = molecular target: T1, Src (Homo sapiens, UniProt P12931); experiment: AlphaScreen kinase assay, Src; conditions: read-out: IC50, activity toward kinase Src
T1 construct: P1144. pET-N6 BI-PTP SRC V86-L536-X; made in house

FGFR1 = molecular target: T2, FGFR1 (Homo sapiens, UniProt P11362, C488A/C584S); experiment: AlphaScreen kinase assay, FGFR1; conditions: read-out: IC50, activity toward kinase FGFR
T2 construct: P1351.pET N6 BI-PTP FGFR A458-E765-X C488A, C584S; made in house; host or cells: E. coli (PTP1B co-expressed)
T2 sequence (P11362 458-765 C488A/C584S): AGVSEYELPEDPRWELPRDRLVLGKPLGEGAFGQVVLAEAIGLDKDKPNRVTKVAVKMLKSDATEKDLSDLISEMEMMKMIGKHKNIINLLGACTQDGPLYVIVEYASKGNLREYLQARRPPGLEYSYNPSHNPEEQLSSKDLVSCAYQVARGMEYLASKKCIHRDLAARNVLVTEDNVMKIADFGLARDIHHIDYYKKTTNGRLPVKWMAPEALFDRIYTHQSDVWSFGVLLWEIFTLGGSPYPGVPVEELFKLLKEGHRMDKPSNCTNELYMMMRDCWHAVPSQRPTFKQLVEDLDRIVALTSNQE

Flt1 = molecular target: T3, Flt1 (Homo sapiens, UniProt P17948); experiment: AlphaScreen kinase assay, Flt1; conditions: read-out: IC50, activity toward kinase Flt1
T3 construct: P1826.pETN6 BI-PTP FLT1 M799-D1165-X WT; His6 (N); made in house; host or cells: E. coli (PTP1B co-expressed)
T3 sequence (P17948 with tags, fused parts or gaps): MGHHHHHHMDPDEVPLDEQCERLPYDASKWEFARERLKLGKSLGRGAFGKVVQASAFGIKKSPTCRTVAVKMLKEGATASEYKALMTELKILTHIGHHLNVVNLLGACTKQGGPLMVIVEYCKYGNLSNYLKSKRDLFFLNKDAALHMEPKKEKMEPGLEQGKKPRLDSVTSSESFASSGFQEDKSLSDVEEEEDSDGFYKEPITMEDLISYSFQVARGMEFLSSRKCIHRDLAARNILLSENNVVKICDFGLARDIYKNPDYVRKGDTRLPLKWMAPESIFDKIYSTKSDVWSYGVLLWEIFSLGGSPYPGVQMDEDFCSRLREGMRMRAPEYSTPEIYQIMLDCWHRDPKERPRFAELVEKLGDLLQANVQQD

Fms = molecular target: T4, Fms (Homo sapiens, UniProt P07333); experiment: AlphaScreen kinase assay, Fms; conditions: read-out: IC50, activity toward kinase Fms
T4 construct: purchased Upstate Biotechnology
T4 sequence (P07333 20-972): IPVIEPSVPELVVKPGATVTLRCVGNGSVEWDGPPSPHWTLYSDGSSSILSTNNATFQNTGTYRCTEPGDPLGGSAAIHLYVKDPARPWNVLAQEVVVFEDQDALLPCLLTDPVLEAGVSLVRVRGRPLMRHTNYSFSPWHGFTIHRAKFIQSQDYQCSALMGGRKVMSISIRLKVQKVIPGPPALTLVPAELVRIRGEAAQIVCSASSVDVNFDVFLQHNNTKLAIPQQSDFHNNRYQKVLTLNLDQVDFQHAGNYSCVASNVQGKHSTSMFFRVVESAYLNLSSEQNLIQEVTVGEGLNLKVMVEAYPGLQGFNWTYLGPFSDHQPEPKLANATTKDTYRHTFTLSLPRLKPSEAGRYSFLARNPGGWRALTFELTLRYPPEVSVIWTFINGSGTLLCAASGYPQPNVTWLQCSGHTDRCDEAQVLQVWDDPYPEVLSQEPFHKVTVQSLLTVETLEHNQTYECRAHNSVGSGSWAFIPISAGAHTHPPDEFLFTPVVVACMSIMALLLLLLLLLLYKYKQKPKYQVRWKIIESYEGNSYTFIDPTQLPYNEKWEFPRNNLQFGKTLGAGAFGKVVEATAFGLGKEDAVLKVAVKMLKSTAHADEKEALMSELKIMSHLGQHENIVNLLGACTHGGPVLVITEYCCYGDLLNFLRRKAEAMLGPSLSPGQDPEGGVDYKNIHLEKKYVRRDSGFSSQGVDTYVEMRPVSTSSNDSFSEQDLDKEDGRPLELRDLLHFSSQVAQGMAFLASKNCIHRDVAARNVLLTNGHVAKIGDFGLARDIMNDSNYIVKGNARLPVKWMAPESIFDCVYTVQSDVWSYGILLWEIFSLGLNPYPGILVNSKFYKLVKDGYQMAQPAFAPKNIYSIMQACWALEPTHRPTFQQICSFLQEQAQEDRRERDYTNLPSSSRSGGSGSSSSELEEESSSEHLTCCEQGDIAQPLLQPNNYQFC

B-Raf V600E = molecular target: T5, B-Raf V600E (Homo sapiens, UniProt P15056, V600E); experiment: AlphaScreen kinase assay, B-Raf V600E; conditions: read-out: IC50, activity toward kinase B-Raf V600E
T5 construct: P4254. pFastBacBD-CDC37 BRAF D437-K722-X, V600E; His6 with pFastBac HT leader (TEV site) (N); made in house; host or cells: Sf9 (baculovirus; chaperone CDC37 co-expressed)
T5 sequence (P15056 with tags, fused parts or gaps V600E): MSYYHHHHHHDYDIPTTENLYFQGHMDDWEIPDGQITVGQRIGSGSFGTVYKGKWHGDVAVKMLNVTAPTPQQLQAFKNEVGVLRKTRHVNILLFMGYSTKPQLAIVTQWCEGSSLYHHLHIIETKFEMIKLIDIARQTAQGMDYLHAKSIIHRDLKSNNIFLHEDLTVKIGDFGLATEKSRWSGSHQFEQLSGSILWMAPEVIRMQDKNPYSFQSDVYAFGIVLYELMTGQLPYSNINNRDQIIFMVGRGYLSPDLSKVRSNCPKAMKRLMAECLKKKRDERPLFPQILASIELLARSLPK

Kit = molecular target: T6, Kit (Homo sapiens, UniProt P10721); experiment: AlphaScreen kinase assay, Kit; conditions: read-out: IC50, activity toward kinase Kit
T6 construct: P1332.N6 BI PTP KIT M552-K948-X COD; His6 (N); made in house; host or cells: E. coli (PTP1B co-expressed)
T6 sequence (P10721 with tags, fused parts or gaps): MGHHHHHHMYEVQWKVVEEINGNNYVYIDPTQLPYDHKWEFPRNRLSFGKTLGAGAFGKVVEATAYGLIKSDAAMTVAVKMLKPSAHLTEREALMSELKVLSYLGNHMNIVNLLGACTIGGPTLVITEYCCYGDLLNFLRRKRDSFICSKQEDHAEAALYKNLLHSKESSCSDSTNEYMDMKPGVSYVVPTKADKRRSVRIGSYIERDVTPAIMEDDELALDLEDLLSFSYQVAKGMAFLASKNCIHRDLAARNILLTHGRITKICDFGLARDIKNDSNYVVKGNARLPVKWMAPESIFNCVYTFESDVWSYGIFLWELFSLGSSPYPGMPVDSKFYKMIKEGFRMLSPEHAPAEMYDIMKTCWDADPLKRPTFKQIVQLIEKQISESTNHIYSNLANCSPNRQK

Ret = molecular target: T7, Ret (Homo sapiens, UniProt P07949); experiment: AlphaScreen kinase assay, Ret; conditions: read-out: IC50, activity toward kinase Ret
T7 construct: P1378.pET-SF BI-PTP RET H661-R1012 HIS; made in house
T7 sequence (P07949 with tags, fused parts or gaps): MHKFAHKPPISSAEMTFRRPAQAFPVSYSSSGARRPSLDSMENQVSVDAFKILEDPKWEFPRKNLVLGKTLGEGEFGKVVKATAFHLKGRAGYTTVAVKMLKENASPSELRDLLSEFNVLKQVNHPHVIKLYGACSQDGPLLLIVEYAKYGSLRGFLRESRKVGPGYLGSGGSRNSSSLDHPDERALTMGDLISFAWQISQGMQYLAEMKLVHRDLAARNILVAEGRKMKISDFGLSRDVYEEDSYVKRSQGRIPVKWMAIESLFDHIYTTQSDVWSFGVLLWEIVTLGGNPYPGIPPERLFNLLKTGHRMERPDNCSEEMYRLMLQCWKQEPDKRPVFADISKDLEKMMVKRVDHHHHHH

c-Raf-1 = molecular target: T8, c-Raf-1 (Homo sapiens, UniProt P04049); experiment: AlphaScreen kinase assay, c-Raf-1; conditions: read-out: IC50, activity toward kinase c-Raf-1
T8 construct: purchased Upstate Biotechnology
T8 sequence (P04049 whole entry): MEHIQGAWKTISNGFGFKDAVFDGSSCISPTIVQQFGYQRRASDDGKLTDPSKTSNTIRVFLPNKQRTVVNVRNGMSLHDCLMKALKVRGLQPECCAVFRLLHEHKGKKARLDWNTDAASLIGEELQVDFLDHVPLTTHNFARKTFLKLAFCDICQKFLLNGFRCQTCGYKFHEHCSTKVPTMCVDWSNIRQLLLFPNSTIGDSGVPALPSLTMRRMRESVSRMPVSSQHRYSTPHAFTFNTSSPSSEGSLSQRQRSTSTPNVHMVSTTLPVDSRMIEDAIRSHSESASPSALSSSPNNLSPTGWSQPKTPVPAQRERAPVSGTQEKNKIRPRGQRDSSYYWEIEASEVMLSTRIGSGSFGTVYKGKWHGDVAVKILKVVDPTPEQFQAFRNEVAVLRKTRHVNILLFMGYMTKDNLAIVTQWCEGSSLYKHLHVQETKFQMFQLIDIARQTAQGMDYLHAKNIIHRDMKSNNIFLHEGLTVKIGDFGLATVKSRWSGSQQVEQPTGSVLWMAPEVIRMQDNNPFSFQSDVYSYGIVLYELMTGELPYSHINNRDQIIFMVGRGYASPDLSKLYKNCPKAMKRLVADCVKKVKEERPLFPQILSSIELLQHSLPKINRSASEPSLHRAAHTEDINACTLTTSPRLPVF

B-Raf = molecular target: T9, B-Raf (Homo sapiens, UniProt P15056); experiment: AlphaScreen kinase assay, B-Raf; conditions: read-out: IC50, activity toward kinase B-Raf
T9 construct: purchased Upstate Biotechnology
T9 sequence (P15056 whole entry): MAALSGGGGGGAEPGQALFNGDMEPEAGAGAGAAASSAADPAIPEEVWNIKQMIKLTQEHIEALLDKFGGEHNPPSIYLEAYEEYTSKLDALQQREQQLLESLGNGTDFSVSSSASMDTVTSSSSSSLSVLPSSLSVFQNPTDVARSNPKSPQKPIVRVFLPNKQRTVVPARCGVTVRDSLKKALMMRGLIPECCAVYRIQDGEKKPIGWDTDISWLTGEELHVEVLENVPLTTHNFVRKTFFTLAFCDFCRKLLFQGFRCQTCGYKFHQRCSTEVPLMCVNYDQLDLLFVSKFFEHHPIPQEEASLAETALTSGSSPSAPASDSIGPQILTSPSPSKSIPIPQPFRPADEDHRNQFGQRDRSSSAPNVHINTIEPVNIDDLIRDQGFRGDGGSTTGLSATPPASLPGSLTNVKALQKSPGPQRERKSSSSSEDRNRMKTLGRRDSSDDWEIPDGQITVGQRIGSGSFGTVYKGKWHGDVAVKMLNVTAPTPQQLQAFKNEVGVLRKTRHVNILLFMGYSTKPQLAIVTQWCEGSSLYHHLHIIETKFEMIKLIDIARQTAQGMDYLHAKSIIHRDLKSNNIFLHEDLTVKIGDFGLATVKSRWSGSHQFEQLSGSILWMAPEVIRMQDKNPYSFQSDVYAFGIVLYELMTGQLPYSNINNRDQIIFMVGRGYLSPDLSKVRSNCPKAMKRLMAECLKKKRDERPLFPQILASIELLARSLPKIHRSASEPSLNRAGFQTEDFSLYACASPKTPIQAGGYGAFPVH

Jnk1 = molecular target: T10, Jnk1 (Homo sapiens, UniProt P45983); experiment: AlphaScreen kinase assay, Jnk1; conditions: read-out: IC50, activity toward kinase Jnk1
T10 construct: purchased Upstate Biotechnology
T10 sequence (P45983 whole entry): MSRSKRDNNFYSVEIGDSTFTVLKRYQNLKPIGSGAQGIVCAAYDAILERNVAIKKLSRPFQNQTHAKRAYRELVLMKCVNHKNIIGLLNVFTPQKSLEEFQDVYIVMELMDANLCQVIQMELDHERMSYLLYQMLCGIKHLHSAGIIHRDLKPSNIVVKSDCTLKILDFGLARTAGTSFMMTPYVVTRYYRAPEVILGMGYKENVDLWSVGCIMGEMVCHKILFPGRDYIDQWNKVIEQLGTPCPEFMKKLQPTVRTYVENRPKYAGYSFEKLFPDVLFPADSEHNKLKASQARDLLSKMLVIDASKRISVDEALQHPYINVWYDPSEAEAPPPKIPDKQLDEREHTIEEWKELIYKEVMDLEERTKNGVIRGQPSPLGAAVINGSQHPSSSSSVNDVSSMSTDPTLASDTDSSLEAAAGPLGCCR

Jnk3 = molecular target: T11, Jnk3 (Homo sapiens, UniProt P53779); experiment: AlphaScreen kinase assay, Jnk3; conditions: read-out: IC50, activity toward kinase Jnk3
T11 construct: purchased Upstate Biotechnology
T11 sequence (P53779 whole entry): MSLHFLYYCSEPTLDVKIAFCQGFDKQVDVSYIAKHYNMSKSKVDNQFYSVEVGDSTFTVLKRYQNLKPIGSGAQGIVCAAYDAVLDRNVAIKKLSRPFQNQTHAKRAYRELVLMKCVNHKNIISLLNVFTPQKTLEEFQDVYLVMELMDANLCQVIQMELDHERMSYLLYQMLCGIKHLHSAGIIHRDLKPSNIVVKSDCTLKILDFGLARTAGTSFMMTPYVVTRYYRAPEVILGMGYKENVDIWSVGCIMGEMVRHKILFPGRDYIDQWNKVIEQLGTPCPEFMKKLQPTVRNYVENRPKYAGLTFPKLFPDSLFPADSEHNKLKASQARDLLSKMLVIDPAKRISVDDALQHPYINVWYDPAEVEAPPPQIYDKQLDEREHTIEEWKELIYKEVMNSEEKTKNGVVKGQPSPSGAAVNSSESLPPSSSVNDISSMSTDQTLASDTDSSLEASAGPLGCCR

Measured: IC50

T1 sequence (P12931 with tags, fused parts or gaps): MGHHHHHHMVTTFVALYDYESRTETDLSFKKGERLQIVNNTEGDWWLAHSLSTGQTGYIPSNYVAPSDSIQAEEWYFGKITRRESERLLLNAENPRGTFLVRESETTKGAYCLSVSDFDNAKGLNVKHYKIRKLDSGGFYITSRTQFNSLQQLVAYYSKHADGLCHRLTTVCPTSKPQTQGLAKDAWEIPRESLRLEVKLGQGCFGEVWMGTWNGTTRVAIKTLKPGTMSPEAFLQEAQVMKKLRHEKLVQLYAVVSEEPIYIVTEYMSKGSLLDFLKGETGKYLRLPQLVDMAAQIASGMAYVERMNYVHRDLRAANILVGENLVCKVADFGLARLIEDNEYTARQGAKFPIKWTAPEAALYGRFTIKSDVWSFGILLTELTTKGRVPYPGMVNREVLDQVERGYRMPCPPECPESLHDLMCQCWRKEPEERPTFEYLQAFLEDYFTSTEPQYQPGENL

COc1ccnc2[nH]cc(Cc3ccc(NCc4ccc(Cl)cc4)nc3)c12 [Compound P-0373]
≤ 10 µM: Src | FGFR1 | Flt1 | Fms | B-Raf V600E

Clc1ccc(CNc2ccc(Cc3c[nH]c4nccc(Cl)c34)cn2)cc1 [Compound P-0515]
≤ 10 µM: Src | FGFR1 | Flt1 | Fms | B-Raf V600E

COc1ccc(C(=O)c2c[nH]c3ncc(Br)cc23)c(Cl)c1 [Compound P-0647]
≤ 10 µM: Src | Kit | FGFR1 | Ret | B-Raf V600E

CCCS(=O)(=O)Nc1ccc(F)c(C(=O)c2c[nH]c3ncc(-c4ccc(OC)cc4)cc23)c1F [Compound P-0877, Propane-1-sulfonic acid {2,4-difluoro-3-[5-(4-methoxy-phenyl)-1H-pyrrolo[2,3-b]pyridine-3-carbonyl]-phenyl}-amide]
≤ 10 µM: c-Raf-1 | Src | Kit | FGFR1 | B-Raf V600E | B-Raf

CN(C)S(=O)(=O)Nc1ccc(F)c(C(=O)c2c[nH]c3ncccc23)c1F [Compound P-0950, Dimethylamine-1-sulfonic acid [3-(1H-pyrrolo[2,3-b]pyridine-3-carbonyl)-2,4-difluoro-phenyl]-amide]
≤ 10 µM: c-Raf-1 | Src | FGFR1 | B-Raf V600E

CN(C)S(=O)(=O)Nc1ccc(F)c(C(=O)c2c[nH]c3ncc(Cl)cc23)c1F [Compound P-1258, Dimethylamine-1-sulfonic acid [3-(5-chloro-1H-pyrrolo[2,3-b]pyridine-3-carbonyl)-2,4-difluorophenyl]-amide]
≤ 10 µM: c-Raf-1 | Src | FGFR1 | B-Raf V600E | B-Raf

CCCS(=O)(=O)Nc1ccc(F)c(Cc2c[nH]c3ncc(NCCN4CCN(C)CC4)cc23)c1F [Compound P-1345]
≤ 10 µM: Src | FGFR1 | B-Raf V600E

O=S(=O)(Nc1ccc(F)c(Cc2c[nH]c3ncc(-c4cccnc4)cc23)c1F)c1ccccc1 [Compound P-1398]
≤ 10 µM: c-Raf-1 | Src | FGFR1 | B-Raf V600E

O=[N+]([O-])c1cccc(C(O)c2c[nH]c3ncc(-c4cccnc4)cc23)c1 (stereo not shown) [Compound P-1399, (3-nitro-phenyl)-(5-pyridin-3-yl-1H-pyrrolo[2,3-b]pyridin-3-yl)-methanol]
≤ 10 µM: Src | Kit | FGFR1 | Fms | B-Raf V600E

O=C(O)/C=C/c1cccc(-c2cnc3[nH]cc(C(=O)c4cccc(C(F)(F)F)c4)c3c2)c1 [Compound P-1416, (E)-3-{3-[3-(3-Trifluoromethyl-benzoyl)-1H-pyrrolo[2,3-b]pyridin-5-yl]-phenyl}-acrylic acid]
≤ 10 µM: Src | Kit | FGFR1 | Flt1 | Fms | B-Raf V600E

COC(=O)Nc1ccc(F)c(C(=O)c2c[nH]c3ncc(Br)cc23)c1F [Compound P-1448]
≤ 10 µM: c-Raf-1 | Src | FGFR1 | Fms | B-Raf V600E

O=C(COc1ccc(F)c(Cc2c[nH]c3ncc(-c4cccnc4)cc23)c1F)NCc1ccccc1 [Compound P-1469, N-Benzyl-2-[2,4-difluoro-3-(5-pyridin-3-yl-1H-pyrrolo[2,3-b]pyridin-3-ylmethyl)-phenoxy]-acetamide]
not listed: Ret | c-Raf-1 | Jnk1 | Jnk3
≤ 10 µM: all other assays above

COCCOc1ccc(F)c(C(=O)c2c[nH]c3ncc(-c4cccc(NS(C)(=O)=O)c4)cc23)c1F [Compound P-1472, N-(3-{3-[2,6-Difluoro-3-(2-methoxy-ethoxy)-benzoyl]-1H-yrrolo[2,3-b]pyridin-5-yl}-phenyl)-methanesulfonamide]
not listed: Ret | c-Raf-1 | Jnk1 | Jnk3
≤ 10 µM: all other assays above

O=C(c1c(Cl)cccc1Cl)c1c[nH]c2ncccc12 [Compound P-1476]
≤ 10 µM: Src | Kit | FGFR1 | Fms

Cc1cccc(C)c1C(=O)c1c[nH]c2ncccc12 [Compound P-1484]
≤ 10 µM: Src | Kit

c1ccc(Oc2cccc(Nc3c[nH]c4ncccc34)c2)cc1 [Compound P-1496, (3-Phenoxy-phenyl)-(1H-pyrrolo[2,3-b]pyridin-3-yl)-amine]
≤ 10 µM: Src | Fms

COc1cccc(N(C)c2c[nH]c3ncccc23)c1 [Compound P-1506, (3-Methoxy-phenyl)-methyl-(1H-pyrrolo[2,3-b]pyridin-3-yl)-amine]
≤ 10 µM: Src | Kit | Fms | B-Raf V600E

CS(=O)(=O)Nc1cccc(-c2cnc3[nH]cc(Cc4ccc5c(c4)OCCO5)c3c2)c1 [Compound P-1530, N-{3-[3-(2,3-Dihydro-benzo[1,4]dioxin-6-ylmethyl)-1H-pyrrolo[2,3-b]pyridin-5-yl]-phenyl}-methanesulfonamide]
≤ 10 µM: Src | Kit | FGFR1 | Flt1 | Fms | B-Raf V600E

CCCS(=O)(=O)Nc1ccc(F)c(C(=O)c2c[nH]c3ncc(-c4ccc(C(N)=O)cc4)cc23)c1F [Compound P-1546, 4-{3-[2,6-Difluoro-3-(propane-1-sulfonylamino)-benzoyl]-1H-pyrrolo[2,3-b]pyridin-5-yl}-benzamide]
not listed: Src | Ret
≤ 10 µM: all other assays above

Source: patent US8415469B2, “Compounds and methods for kinase modulation, and indications therefor” (Plexxikon Inc., priority 2005, dated 2013)
